pIC50: −log10 of the molar value. Where two headings read alike, the source gives them in different places.
Experiments:
[1] = Human liver microsome assay (metabolic stability); format: in vitro ADME; conditions: for half-life at 1 μM / CLint scaled at 1 μM: pH 7.4
Procedure: Control and reagent: NADPH, magnesium chloride, testosterone, phosphate buffer, etc. were supplied by Dalian Meilun Biotech Co., Ltd., etc.
Liver microsome: human liver microsomes were supplied by Corning.
Experimental step: the liver microsome incubations were performed in 96-well plates, each incubation system having a volume of 200 μL, in a medium of 0.1 M phosphate buffer (pH 7.4), including liver microsomes at a final concentration of 0.2 mg/mL, 1 μM of the test drug, 3.0 mM MgCl2, 0.01% DMSO, 0.5% acetonitrile, and 2.0 mM NADPH. The incubation system described above without NADPH was pre-incubated at 37° C. for 5 min using a rotary water bath constant temperature oscillator. NADPH was added to initiate the reaction. At 0, 5, 15, 30, and 60 min, 20 μL of the sample was taken out from the incubation system after mixing well and added to 200 μL of acetonitrile containing an internal standard to terminate the reaction. Under the same conditions, 1 μM testosterone was used as a positive control to assess the reliability of the reaction system. For the negative control, phosphate buffer was used instead of NADPH, and all other incubation conditions remained the same. At 60 min, 20 μL of the sample was taken out after mixing well and added to 200 μL of termination solution containing an internal standard to terminate the reaction.
Sample analysis: After treatments such as precipitated protein extraction with an organic solvent, the incubated sample was analyzed using liquid chromatography-tandem mass spectrometry (LC-MS/MS). The concentrations of the test drug or the positive control drug in the sample were semi-quantified. The concentration in the sample was expressed using the ratio of the analyte peak area to the internal standard peak area.
Data processing and analysis: A standard curve of the In residual rate of the drug in the incubation system with respect to the incubation time was plotted by using Excel software, linear regression was performed to obtain a slope k, and the half-life T1/2 (min) and the intrinsic clearance CLint (mL/min/kg) were calculated according to the following formula: […]

[2] = test system: male C57 mice; test: Forced swim test; format: in vivo; conditions: intraperitoneal injection, test 0.5 h after dosing, motionless time in last 4 min
Procedure: Drug: the compound of the present disclosure was first uniformly mixed with 5% DMSO and 5% Solutol® HS 15. hysiological saline was then added to make up 90% of the final volume. The mixture was prepared at an appropriate concentration immediately before use.
Animal: male C57 mice, about 22 g. The animals were randomly divided into a blank control group and test drug groups, 8 animals per group, and mice in each group were administered either the vehicle or the test compound via intraperitoneal injection.
Experimental steps: the mice were subjected to forced swim test 0.5 h after dosing. The water level in the forced swim device was 45 cm, and the water temperature was 25° C. The mice were placed in an experimental room to adapt to the environment for 1 h before the experiment began. When the experiment began, the mice were placed in the device for 6 min, and the whole process was recorded by a camera. Only the motionless time of the mice in the last 4 min was counted when data were analyzed.

[3] = molecular target: human SERT (Homo sapiens, UniProt P31645); test: Inhibitory activity assay against 5-HT transporter (neurotransmitter transporter uptake assay kit); format: cell-based; conditions: HEK-293 cells overexpressing human SERT; read-out: 5-HTT (IC50)
Procedure: In HEK-293 cells overexpressing human SERT, the transporter inhibitory effect of the test compound on human SERT was assayed using a Neurotransmitter transporter uptake assay kit (Molecular devices).

[4] = In vivo metabolism (pharmacokinetic) experiment in mice; parameters: species or system male ICR mice; conditions: mouse, male ICR mice; for bioavailability: oral 10 mg/kg vs iv 2.5 mg/kg, read-out: F (%); for AUC(0-inf) / Cmax / half-life: oral 10 mg/kg, plasma; for AUC(0-inf): read-out: AUC0-inf(po); for Cmax: read-out: Cmax (po); for half-life: read-out: T1/2 (po) (converted)
Procedure: Animal: male ICR mice. The animals were randomly assigned to treatment groups and fasted for 12 h prior to dosing.
Drug: the compound of the present disclosure was dissolved in a vehicle (5% DMSO+5% Solutol HS15+90% saline). For intravenous (iv) administration, the dose was 2.5 mg/kg with a dosing volume of 5 mL/kg; for oral (po) administration, the dose was 10 mg/kg with a dosing volume of 10 mL/kg body weight. Sample collection and bioanalysis: blood was collected from the orbit of the mice and added into EP tubes containing heparin sodium at 0.083, 0.25, 0.5, 1, 2, 4, 6, and 8 h (n=3 for each time point). Immediately after blood collection, the mice were euthanized by cervical dislocation, and mouse brains were collected at the corresponding time points. All samples were promptly collected, snap-frozen, and stored at −70° C. for later use. Plasma samples were obtained by centrifugation of whole blood. 10 μL of plasma was mixed with 190 μL of internal standard solution (20 ng/ml in acetonitrile containing 0.1% formic acid). After mixing, the samples were centrifuged at 13000 rpm for 10 min, and 120 μL of the supernatant was separately collected. Depending on the sensitivity of the compound, 0.5-10 μL of the supernatant was taken for drug analysis using the appropriate liquid chromatography-tandem mass spectrometry (LC-MS/MS). Each analyte was calibrated and identified using standards. According to brain tissue: the extract (50% acetonitrile/water) at a ratio of 1 g:8 mL was homogenized for 2 min using five 3 mm magnetic beads in an OMNI Bead Ruptor 24 Elite homogenizer at 3.2 m/s and centrifuged at 4° C. and 3000 g for 3 min. 50 μL of the supernatant was mixed with 200 μL of internal standard solution (20 ng/mL in 80% acetonitrile/water). After mixing, the samples were centrifuged at 13,000 rpm for 10 min, and 120 μL of the supernatant was separately collected. Depending on the sensitivity of the compound, 0.5-10 μL of the supernatant was taken for drug analysis using the appropriate LC-MS/MS method. Each analyte was calibrated and identified using standards.
Data analysis: drug concentrations below the lower limit of quantification (LLOQ) were considered zero. Pharmacokinetic parameters were analyzed using PK Solver with a non-compartmental, bolus injection or extravascular input analysis models. Data points below the LLOQ were excluded to improve the efficacy of t1/2 calculation.

[5] = molecular target: human DAT (Homo sapiens, UniProt Q01959); test: DAT transporter inhibitory activity test (neurotransmitter transporter uptake assay kit); format: cell-based
Procedure: Transporter inhibition of human DAT and NET expressed in HEK-293 cells was assessed using a neurotransmitter transporter uptake assay kit. The assay was performed as described in the kit instructions, using centanafadine as a positive control. The specific procedures were as follows:
DAT stably transfected culture: The DAT-HEK cell line was cultured in DMEM medium containing 10% fetal bovine serum and 0.2 mg/mL hygromycin B at 37° C. with 5% carbon dioxide.
DAT stably transfected cell passage: the old medium was removed, and the cells were washed once with PBS; 1 mL of TrypLE™ Express solution was then added, and the cells were incubated at 37° C. for about 2 min. When the cells were detached from the bottom of the dish, about 5 mL of complete medium pre-heated at 37° C. was added. The cell suspension was gently pipetted to separate the aggregated cells. The cell suspension was transferred to a sterile centrifuge tube and centrifuged at 1000 rpm for 5 min. In order to maintain the physiological activity of the cells, the experimental cell confluence was controlled at about 80%.
• a) After overnight transfection of NET cells, the cells were digested with trypsin, resuspended with DMEM+10% Dialyzed FBS medium, seeded into a 384-well plate at 20000 cells/well, and incubated overnight. […] After centrifuging, the plate was incubated at 37° C. for 30 min. • e) A detection reagent was prepared using 1×HBSS, and 16 μL of the detection reagent was added to each well. […] Curve fitting and IC50 calculation were performed using GraphPad Prism software nonlinear regression method.

[6] = human liver microsomes 0.2 mg/mL, 1 μM test drug, NADPH, 37° C., read-out: Half-life (t1/2, min)
[7] = human liver microsomes 0.2 mg/mL, 1 μM test drug, NADPH, 37° C., read-out: Intrinsic clearance (Clint, mL/min/kg)

Sequence of human SERT (P31645 whole entry): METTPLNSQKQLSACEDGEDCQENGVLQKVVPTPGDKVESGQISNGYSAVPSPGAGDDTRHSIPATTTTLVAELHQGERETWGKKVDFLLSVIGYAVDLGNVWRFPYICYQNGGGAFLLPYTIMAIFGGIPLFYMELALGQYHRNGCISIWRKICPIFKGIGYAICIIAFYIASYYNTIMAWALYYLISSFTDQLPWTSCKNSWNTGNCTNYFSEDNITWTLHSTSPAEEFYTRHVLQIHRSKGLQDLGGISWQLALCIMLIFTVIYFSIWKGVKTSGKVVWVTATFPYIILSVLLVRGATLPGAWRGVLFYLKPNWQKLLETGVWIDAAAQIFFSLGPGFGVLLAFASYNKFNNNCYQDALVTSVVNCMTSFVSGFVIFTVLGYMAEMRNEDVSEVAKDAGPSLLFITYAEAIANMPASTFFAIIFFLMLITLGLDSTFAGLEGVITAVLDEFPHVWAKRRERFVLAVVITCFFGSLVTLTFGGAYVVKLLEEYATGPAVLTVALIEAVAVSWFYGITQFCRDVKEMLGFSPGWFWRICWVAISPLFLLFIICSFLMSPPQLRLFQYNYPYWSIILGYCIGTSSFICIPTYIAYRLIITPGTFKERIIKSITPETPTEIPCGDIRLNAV
Sequence of human DAT (Q01959 whole entry): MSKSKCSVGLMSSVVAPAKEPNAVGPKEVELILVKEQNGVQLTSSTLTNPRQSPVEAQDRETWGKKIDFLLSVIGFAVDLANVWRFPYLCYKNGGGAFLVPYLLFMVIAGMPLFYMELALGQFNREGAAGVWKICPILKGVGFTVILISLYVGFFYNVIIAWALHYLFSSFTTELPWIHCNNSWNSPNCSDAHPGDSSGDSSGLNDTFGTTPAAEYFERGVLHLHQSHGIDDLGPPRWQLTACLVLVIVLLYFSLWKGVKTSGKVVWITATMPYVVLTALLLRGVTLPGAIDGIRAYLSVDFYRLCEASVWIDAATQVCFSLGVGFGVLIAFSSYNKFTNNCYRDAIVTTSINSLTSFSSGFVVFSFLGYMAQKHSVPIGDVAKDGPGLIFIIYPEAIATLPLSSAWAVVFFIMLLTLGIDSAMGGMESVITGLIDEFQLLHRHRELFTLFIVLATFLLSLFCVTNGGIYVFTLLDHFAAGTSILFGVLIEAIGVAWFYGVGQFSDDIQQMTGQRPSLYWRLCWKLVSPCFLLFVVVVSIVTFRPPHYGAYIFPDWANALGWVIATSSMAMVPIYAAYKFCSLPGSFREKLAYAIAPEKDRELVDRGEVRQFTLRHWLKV

In the case of `c1ccc(C2(N3CCCCC3)CCc3[nH]ncc3C2)cc1` (racemic) [rac-A70, 5-phenyl-5-(piperidin-1-yl)-4,5,6,7-tetrahydro-1H-indazole], the half-life at 1 μM [1, 6] was > 120 min and the “Effective dose” value [2] was 1 mg/kg.

With `Nc1nc2c(s1)CC(N)(c1ccccc1F)CC2` (racemic) [rac-A9, 6-(2-fluorophenyl)-4,5,6,7-tetrahydrobenzothiazole-2,6-diamine] the pIC50 [3] was 6.10 and the “Effective dose” value [2] was 1 mg/kg.

In the case of `Nc1nc2c(s1)CC(N)(c1cccc(OC(F)F)c1)CC2` (racemic) [rac-A256, 6-(3-(difluoromethoxy)phenyl)-4,5,6,7-tetrahydrobenzo[d]thiazole-2,6-diamine], the “Effective dose” value [2] was 5 mg/kg.

In the case of `Nc1nc2c(s1)CCC(N)(c1ccccc1)C2` (racemic) [rac-A132, 5-phenyl-4,5,6,7-tetrahydrobenzo[d]thiazole-2,5-diamine], the “Effective dose” value [2] was 3 mg/kg.

For `c1ccc(C2(N3CCCC3)CCc3[nH]ncc3C2)cc1` (racemic) [rac-A12, 5-phenyl-5-(pyrrolidin-1-yl)-4,5,6,7-tetrahydro-1H-indazole], the CLint scaled at 1 μM ([1]; human, microsomes) was 12.4 mL/min/kg, the half-life at 1 μM ([1]; human, microsomes) was 327 min and the “Effective dose” value [2] was 1 mg/kg.

With `NC1(c2ccccc2)CCCc2sccc21` (racemic) [rac-A16, 4-phenyl-4,5,6,7-tetrahydrobenzothiophen-4-amine] the half-life at 1 μM [1, 6] was 42 min, the CLint scaled at 1 μM [1, 7] was 95.5 mL/min/kg and the “Effective dose” value [2] was 3 mg/kg. The bioavailability [4] was 41%, the AUC(0-inf) [4] was 501 ng·h/mL and the Cmax [4] was 252 ng/mL. The half-life [4] was 1.76 h.

In the case of `CCCNC1(c2ccccc2)CCc2nc(N)sc2C1` (racemic) [rac-A7, 6-phenyl-N^6-propyl-4,5,6,7-tetrahydrobenzothiazole-2,6-diamine], the half-life at 1 μM [1, 6] was > 120 min, the pIC50 [5] was 5.35 and the bioavailability ([4]; male, ICR, po, 10 mg/kg) was 55%. For the same compound, the AUC(0-inf) ([4]; male, ICR, po, 10 mg/kg) was 768 ng·h/mL, the Cmax ([4]; male, ICR, po, 10 mg/kg) was 208 ng/mL and the half-life ([4]; male, ICR, po, 10 mg/kg) was 1.72 h.

In the case of `NC1(c2ccccc2)CCc2ncsc2C1` (racemic) [rac-A14, 6-phenyl-4,5,6,7-tetrahydrobenzothiazol-6-amine], the half-life at 1 μM [1, 6] was > 120 min, the “Effective dose” value [2] was 3 mg/kg and the bioavailability ([4]; male, ICR, po, 10 mg/kg) was 105%. For the same compound, the AUC(0-inf) ([4]; male, ICR, po, 10 mg/kg) was 2900 ng·h/mL, the Cmax ([4]; male, ICR, po, 10 mg/kg) was 1430 ng/mL and the half-life ([4]; male, ICR, po, 10 mg/kg) was 1.5 h.

For `C[C@]12CC[C@H]3[C@@H](CCC4=CC(=O)CC[C@@]43C)[C@@H]1CC[C@@H]2O` [Testosterone, testosterone, reference compound], the “Half-life (t1/2, min)” value ([1]; human liver microsomes 0.2 mg/mL, 1 μM test drug, NADPH, 37° C.) was 15.3 min and the CLint scaled at 1 μM [1, 7] was 265 mL/min/kg.

In the case of `Nc1nc2c(s1)CC(N)(c1ccccc1)CC2` (racemic) [rac-A1, 6-phenyl-4,5,6,7-tetrahydrobenzothiazole-2,6-diamine], the “Effective dose” value [2] was 1 mg/kg, the bioavailability ([4]; male, ICR, po, 10 mg/kg) was 132% and the AUC(0-inf) ([4]; male, ICR, po, 10 mg/kg) was 2830 ng·h/mL. For the same compound, the Cmax ([4]; male, ICR, po, 10 mg/kg) was 413 ng/mL and the half-life ([4]; male, ICR, po, 10 mg/kg) was 4.68 h.

With `Nc1nc2c(s1)CC(N)(c1cccc(OCC3CC3)c1)CC2` (racemic) [rac-A259, 6-(3-(cyclopropylmethoxy)phenyl)-4,5,6,7-tetrahydrobenzo[d]thiazole-2,6-diamine] the “Effective dose” value [2] was 5 mg/kg.

In the case of `Nc1nc2c(s1)CC(N)(c1cccc(OCC(F)(F)F)c1)CC2` (racemic) [rac-A255, 6-(3-(2,2,2-trifluoroethoxy)phenyl)-4,5,6,7-tetrahydrobenzo[d]thiazole-2,6-diamine], the “Effective dose” value [2] was 5 mg/kg.

With `Nc1nc2c(s1)CCCC2(N)c1ccccc1` (racemic) [rac-A35, 4-phenyl-4,5,6,7-tetrahydrobenzothiazole-2,4-diamine] the “Effective dose” value [2] was 3 mg/kg, the AUC(0-inf) ([4]; male, ICR, po, 10 mg/kg) was 5110 ng·h/mL and the Cmax ([4]; male, ICR, po, 10 mg/kg) was 1140 ng/mL. It also gave a half-life ([4]; male, ICR, po, 10 mg/kg) of 2.66 h.

In the case of `c1ccc(C2(N3CCCC3)CCc3oncc3C2)cc1` (racemic) [rac-A55, 5-phenyl-5-(pyrrolidin-1-yl)-4,5,6,7-tetrahydrobenzo[d]isoxazole], the pIC50 [3] was 5.14, the half-life at 1 μM [1, 6] was 62 min and the CLint scaled at 1 μM [1, 7] was 65.8 mL/min/kg. It also gave a pIC50 ([5]; DAT stably transfected HEK cells, read-out: DAT (IC50)) of 5.35.

In the case of `CNC1(c2cccc(OC(F)F)c2)CCc2nc(N)sc2C1` (racemic) [rac-A282, 6-(3-(difluoromethoxy)phenyl)-N6-methyl-4,5,6,7-tetrahydrobenzo[d]thiazole-2,6-diamine], the “Effective dose” value [2] was 5 mg/kg.

For `CCOc1cccc(C2(N)CCc3nc(N)sc3C2)c1` (racemic) [rac-A228, 6-(3-ethoxyphenyl)-4,5,6,7-tetrahydrobenzo[d]thiazole-2,6-diamine], the “Effective dose” value [2] was 5 mg/kg.
